# Key:
# Canis familiaris [1] = experiment: Toxicity in Beagle dog assessed as untoward effects at 20 mg/kg, sc; format: organism-based, Canis lupus familiaris; set-up: dose 20 mg/kg, route subcutaneous; details: in vivo
# [2] = Drug level in female Beagle dog spleen at 200 mg/kg administered intramuscularly after 1 month; format: ADME, organism-based, Canis lupus familiaris; set-up: dose 200 mg/kg, route intramuscular; details: im, read-out: Drug uptake
# [3] = AUC (0 to infinity) in Sprague-Dawley rat at 1.25 mg/kg, iv after 2 days; format: ADME, organism-based; set-up: time infinity, dose 1.25 mg/kg, route intravenous; details: plasma
# [4] = Drug level in male Beagle dog spleen at 400 mg/kg administered intramuscularly after 1 month; format: ADME, organism-based, Canis lupus familiaris; set-up: dose 400 mg/kg, route intramuscular; details: im, read-out: Drug uptake
# [5] = Drug level in Beagle dog lymph node iliac at 5 mg/kg, sc after 3 months; format: ADME, organism-based, Canis lupus familiaris; set-up: dose 5 mg/kg, route subcutaneous; details: read-out: Drug uptake
# [6] = Tmax in Beagle dog at 5 mg/kg administered intramuscularly after 176 days; format: ADME, organism-based, Canis lupus familiaris; set-up: dose 5 mg/kg, route intramuscular; details: in vivo, im
# [7] = Drug level in Beagle dog muscle at non-injected site at 5 mg/kg, sc after 6 months; format: ADME, organism-based, Canis lupus familiaris, Muscle tissue; set-up: dose 5 mg/kg, route subcutaneous; details: read-out: Drug uptake
# [8] = Ratio of drug level in thymus to plasma in Beagle dog at 5 mg/kg, sc after 3 months; format: ADME, organism-based, Canis lupus familiaris; set-up: dose 5 mg/kg, route subcutaneous
# [9] = Drug level in female Beagle dog spleen at 400 mg/kg administered intramuscularly after 1 month; format: ADME, organism-based, Canis lupus familiaris; set-up: dose 400 mg/kg, route intramuscular; details: im, read-out: Drug uptake
# [10] = Ratio of drug level in thymus to plasma in male Beagle dog at 200 mg/kg, sc after 3 months; format: ADME, organism-based, Canis lupus familiaris; set-up: dose 200 mg/kg, route subcutaneous
# [11] = Ratio of drug level in lymph node popliteal to plasma in Beagle dog at 5 mg/kg administered intramuscularly after 1 month; format: ADME, organism-based, Canis lupus familiaris; set-up: dose 5 mg/kg, route intramuscular; details: im
# [12] = Drug level in Beagle dog skin at non-injected site at 5 mg/kg, sc after 3 months; format: ADME, organism-based, Canis lupus familiaris, Zone of skin; set-up: dose 5 mg/kg, route subcutaneous; details: read-out: Drug uptake
# [13] = Ratio of drug level in spleen to plasma in female Beagle dog at 400 mg/kg, sc after 3 months; format: ADME, organism-based, Canis lupus familiaris; set-up: dose 400 mg/kg, route subcutaneous
# [14] = Drug level in Beagle dog muscle at non-injected site at 5 mg/kg administered intramuscularly after 3 months; format: ADME, organism-based, Canis lupus familiaris, Muscle tissue; set-up: dose 5 mg/kg, route intramuscular; details: im, read-out: Drug uptake
# [15] = Cmax in Beagle dog at 5 mg/kg administered intramuscularly after 176 days; format: ADME, organism-based, Canis lupus familiaris; set-up: dose 5 mg/kg, route intramuscular; details: in vivo, im
# [16] = Cmax in female dog at 200 mg, sc after 85 days; details: in vivo
# [17] = Ratio of drug level in thymus to plasma in Beagle dog at 5 mg/kg, sc after 6 months; format: ADME, organism-based, Canis lupus familiaris; set-up: dose 5 mg/kg, route subcutaneous
# [18] = Cmax in Beagle dog at 5 mg/kg, sc after 176 days; format: ADME, organism-based, Canis lupus familiaris; set-up: dose 5 mg/kg, route subcutaneous; details: in vivo
# [19] = Drug level in male Beagle dog thymus at 200 mg/kg administered intramuscularly after 3 months; format: ADME, organism-based, Canis lupus familiaris; set-up: dose 200 mg/kg, route intramuscular; details: im, read-out: Drug uptake
# [20] = Drug level in female Beagle dog spleen at 400 mg/kg, sc after 1 month; format: ADME, organism-based, Canis lupus familiaris; set-up: dose 400 mg/kg, route subcutaneous; details: read-out: Drug uptake
# [21] = Drug level in Beagle dog lymph node axillar at 5 mg/kg, sc after 3 months; format: ADME, organism-based, Canis lupus familiaris; set-up: dose 5 mg/kg, route subcutaneous; details: axillary lymph node, read-out: Drug uptake
# [22] = Drug level in Beagle dog thymus at 5 mg/kg, sc after 3 months; format: ADME, organism-based, Canis lupus familiaris; set-up: dose 5 mg/kg, route subcutaneous; details: read-out: Drug uptake
# [23] = Drug level in female Beagle dog thymus at 200 mg/kg administered intramuscularly after 3 months; format: ADME, organism-based, Canis lupus familiaris; set-up: dose 200 mg/kg, route intramuscular; details: im, read-out: Drug uptake
# [24] = Plasma concentration in male Beagle dog at 200 mg/kg, sc after 3 months; format: ADME, organism-based, Canis lupus familiaris; set-up: dose 200 mg/kg, route subcutaneous
# [25] = Plasma concentration in female Beagle dog at 400 mg/kg, sc after 1 month; format: ADME, organism-based, Canis lupus familiaris; set-up: dose 400 mg/kg, route subcutaneous; details: read-out: Drug uptake
# [26] = Ratio of drug level in lymph node popliteal to plasma in Beagle dog at 5 mg/kg, sc after 1 month; format: ADME, organism-based, Canis lupus familiaris; set-up: dose 5 mg/kg, route subcutaneous
# [27] = AUC (0 to last) in male dog at 400 mg administered intramuscularly after 85 days; details: plasma, im
# [28] = Drug level in Beagle dog muscle at non-injected site at 5 mg/kg, sc after 3 months; format: ADME, organism-based, Canis lupus familiaris, Muscle tissue; set-up: dose 5 mg/kg, route subcutaneous; details: read-out: Drug uptake
# [29] = Ratio of drug level in lymph node popliteal to plasma in Beagle dog at 5 mg/kg, sc after 3 months; format: ADME, organism-based, Canis lupus familiaris; set-up: dose 5 mg/kg, route subcutaneous
# [30] = Drug level in Beagle dog lymph node mandibular at 5 mg/kg administered intramuscularly after 6 months; format: ADME, organism-based, Canis lupus familiaris; set-up: dose 5 mg/kg, route intramuscular; details: im, read-out: Drug uptake
# [31] = Cmax in male dog at 200 mg, sc after 29 days; details: in vivo
# [32] = Ratio of drug level in spleen to plasma in female Beagle dog at 200 mg/kg administered intramuscularly after 3 months; format: ADME, organism-based, Canis lupus familiaris; set-up: dose 200 mg/kg, route intramuscular; details: im
# [33] = Plasma concentration in female Beagle dog at 200 mg/kg, sc after 1 month; format: ADME, organism-based, Canis lupus familiaris; set-up: dose 200 mg/kg, route subcutaneous; details: read-out: Drug uptake
# [34] = Drug level in male Beagle dog spleen at 200 mg/kg administered intramuscularly after 3 months; format: ADME, organism-based, Canis lupus familiaris; set-up: dose 200 mg/kg, route intramuscular; details: im, read-out: Drug uptake
# [35] = Ratio of drug level in lymph node iliac to plasma in Beagle dog at 5 mg/kg, sc after 1 month; format: ADME, organism-based, Canis lupus familiaris; set-up: dose 5 mg/kg, route subcutaneous
# Canis familiaris [36] = experiment: Toxicity in Beagle dog assessed as irritation at 20 mg/kg administered intramuscularly after 3 months; format: organism-based, Canis lupus familiaris; set-up: dose 20 mg/kg, route intramuscular; details: in vivo, im, 2191.5 h
# [37] = Drug level in Beagle dog liver at 5 mg/kg administered intramuscularly after 3 months; format: ADME, organism-based, Canis lupus familiaris; set-up: dose 5 mg/kg, route intramuscular; details: im, read-out: Drug uptake
# [38] = Ratio of drug level in lymph node iliac to plasma in Beagle dog at 5 mg/kg, sc after 3 months; format: ADME, organism-based, Canis lupus familiaris; set-up: dose 5 mg/kg, route subcutaneous
# [39] = Ratio of drug level in lymph node mandibular to plasma in Beagle dog at 5 mg/kg, sc after 6 months; format: ADME, organism-based, Canis lupus familiaris; set-up: dose 5 mg/kg, route subcutaneous
# [40] = Ratio of drug level in spleen to plasma in male Beagle dog at 200 mg/kg, sc after 3 months; format: ADME, organism-based, Canis lupus familiaris; set-up: dose 200 mg/kg, route subcutaneous
# [41] = Ratio of drug level in spleen to plasma in female Beagle dog at 400 mg/kg, sc after 1 month; format: ADME, organism-based, Canis lupus familiaris; set-up: dose 400 mg/kg, route subcutaneous
# [42] = Drug level in female Beagle dog spleen at 200 mg/kg administered intramuscularly after 3 months; format: ADME, organism-based, Canis lupus familiaris; set-up: dose 200 mg/kg, route intramuscular; details: im, read-out: Drug uptake
# [43] = Ratio of drug level in lymph node mandibular to plasma in Beagle dog at 5 mg/kg, sc after 3 months; format: ADME, organism-based, Canis lupus familiaris; set-up: dose 5 mg/kg, route subcutaneous
# [44] = Drug level in Beagle dog skin at non-injected site at 5 mg/kg, sc after 6 months; format: ADME, organism-based, Canis lupus familiaris, Zone of skin; set-up: dose 5 mg/kg, route subcutaneous; details: read-out: Drug uptake
# [45] = Drug level in male Beagle dog spleen at 400 mg/kg administered intramuscularly after 3 months; format: ADME, organism-based, Canis lupus familiaris; set-up: dose 400 mg/kg, route intramuscular; details: im, read-out: Drug uptake
# [46] = Drug level in Beagle dog lymph node mandibular at 5 mg/kg administered intramuscularly after 3 months; format: ADME, organism-based, Canis lupus familiaris; set-up: dose 5 mg/kg, route intramuscular; details: im, read-out: Drug uptake
# [47] = AUC (0 to last) in male dog at 400 mg administered intramuscularly after 29 days; details: plasma, im
# [48] = Drug level in Beagle dog lymph node axillar at 5 mg/kg administered intramuscularly after 6 months; format: ADME, organism-based, Canis lupus familiaris; set-up: dose 5 mg/kg, route intramuscular; details: axillary lymph node, im, read-out: Drug uptake
# [49] = Drug level in Beagle dog liver at 5 mg/kg, sc after 6 months; format: ADME, organism-based, Canis lupus familiaris; set-up: dose 5 mg/kg, route subcutaneous; details: read-out: Drug uptake
# [50] = Ratio of drug level in liver to plasma in Beagle dog at 5 mg/kg, sc after 6 months; format: ADME, organism-based, Canis lupus familiaris; set-up: dose 5 mg/kg, route subcutaneous
# [51] = Drug level in Beagle dog skin at injected site at 5 mg/kg, sc after 6 months; format: ADME, organism-based, Canis lupus familiaris, Zone of skin; set-up: dose 5 mg/kg, route subcutaneous; details: read-out: Drug uptake
# [52] = Drug level in female Beagle dog spleen at 200 mg/kg, sc after 1 month; format: ADME, organism-based, Canis lupus familiaris; set-up: dose 200 mg/kg, route subcutaneous; details: read-out: Drug uptake
# [53] = Tmax in male dog at 400 mg administered intramuscularly after 29 days; details: in vivo, im
# [54] = Ratio of drug level in lymph node iliac to plasma in Beagle dog at 5 mg/kg, sc after 6 months; format: ADME, organism-based, Canis lupus familiaris; set-up: dose 5 mg/kg, route subcutaneous
# [55] = Drug level in Beagle dog lymph node popliteal at 5 mg/kg administered intramuscularly after 6 months; format: ADME, organism-based, Canis lupus familiaris; set-up: dose 5 mg/kg, route intramuscular; details: im, read-out: Drug uptake
# [56] = Drug level in Beagle dog lymph node axillar at 5 mg/kg, sc after 6 months; format: ADME, organism-based, Canis lupus familiaris; set-up: dose 5 mg/kg, route subcutaneous; details: axillary lymph node, read-out: Drug uptake
smiles,measurement,setting,value
Cc1cc(/C=C/C#N)cc(C)c1Nc1ccnc(Nc2ccc(C#N)cc2)n1 [RILPIVIRINE],Activity,Canis familiaris [1],Non-toxic
same,concentration at 730.5 h,[2],142 ng/g
same,AUC(0-inf),[3],1.23 µg·h/mL
same,concentration at 730.5 h,[4],347 ng/g
same,concentration at 2191.5 h,[5],16.9 ng/g
same,Tmax,[6],0.5 h
same,concentration at 4383 h,[7],< 5 ng/g
same,Kp at 2191.5 h,[8],13
same,concentration at 730.5 h,[9],311 ng/g
same,Kp at 2191.5 h,[10],5.9
same,Kp at 730.5 h,[11],574
same,concentration at 2191.5 h,[12],24.2 ng/g
same,Kp at 2191.5 h,[13],1.9
same,concentration at 2191.5 h,[14],84.1 ng/g
same,Cmax,[15],619 ng/mL
same,Cmax,[16],191 ng/mL
same,Kp at 4383 h,[17],16
same,Cmax,[18],31.4 ng/mL
same,concentration at 2191.5 h,[19],34.4 ng/g
same,concentration at 730.5 h,[20],285 ng/g
same,concentration at 2191.5 h,[21],22.1 ng/g
same,concentration at 2191.5 h,[22],43.6 ng/g
same,concentration at 2191.5 h,[23],27.4 ng/g
same,concentration at 2191.5 h,[24],15.2 ng/mL
same,concentration at 730.5 h,[25],227 ng/g
same,Kp at 730.5 h,[26],4.1
same,AUC(0-t) at 2040 h,[27],281 µg·h/mL
same,concentration at 2191.5 h,[28],18.5 ng/g
same,Kp at 2191.5 h,[29],8.2
same,concentration at 4383 h,[30],6.9 ng/g
same,Cmax,[31],119 ng/mL
same,Kp at 2191.5 h,[32],2.2
same,concentration at 730.5 h,[33],71.8 ng/g
same,concentration at 2191.5 h,[34],23.8 ng/g
same,Kp at 730.5 h,[35],3.9
same,Activity,Canis familiaris [36],Non-toxic
same,concentration at 2191.5 h,[37],20.8 ng/g
same,Kp at 2191.5 h,[38],5.2
same,Kp at 4383 h,[39],6.1
same,Kp at 2191.5 h,[40],2.5
same,Kp at 730.5 h,[41],2.5
same,concentration at 2191.5 h,[42],22.1 ng/g
same,Kp at 2191.5 h,[43],4
same,concentration at 4383 h,[44],13.3 ng/g
same,concentration at 2191.5 h,[45],63.5 ng/g
same,concentration at 2191.5 h,[46],10 ng/g
same,AUC(0-t) at 696 h,[47],188 µg·h/mL
same,concentration at 4383 h,[48],12.2 ng/g
same,concentration at 4383 h,[49],31.1 ng/g
same,Kp at 4383 h,[50],24
same,concentration at 4383 h,[51],143000 ng/g
same,concentration at 730.5 h,[52],14.5 ng/g
same,Tmax,[53],17 h
same,Kp at 4383 h,[54],7.7
same,concentration at 4383 h,[55],30.7 ng/g
same,concentration at 4383 h,[56],8.6 ng/g
